Test results reported in patent US7923440B2, “Method of treating or preventing immune mediated disorders and pharmaceutical formulation for use therein” (Pantarhei Bioscience B.V., priority 2002, dated 2011).

How the values were obtained:
[1] = tested on: AP-1 site in the presence of ERβ; conditions: in the presence of / through ERβ, Paech et al. 1997; cited from earlier work
[2] = tested on: AP-1 site in the presence of ERα; conditions: Paech et al. 1997; cited from earlier work
[3] = molecular target: T1, human sex Hormone Binding Globulin (SHBG) (Homo sapiens, UniProt P04278); assay: Competitive steroid-binding assay for SHBG; conditions: comparison among tested steroids; order ethinylestradiol, 17β-estradiol, testosterone, 5α-dihydrotestosterone
T1 construct: made in house; host or cells: transgenic mouse (serum)
T1 sequence (P04278 30-402): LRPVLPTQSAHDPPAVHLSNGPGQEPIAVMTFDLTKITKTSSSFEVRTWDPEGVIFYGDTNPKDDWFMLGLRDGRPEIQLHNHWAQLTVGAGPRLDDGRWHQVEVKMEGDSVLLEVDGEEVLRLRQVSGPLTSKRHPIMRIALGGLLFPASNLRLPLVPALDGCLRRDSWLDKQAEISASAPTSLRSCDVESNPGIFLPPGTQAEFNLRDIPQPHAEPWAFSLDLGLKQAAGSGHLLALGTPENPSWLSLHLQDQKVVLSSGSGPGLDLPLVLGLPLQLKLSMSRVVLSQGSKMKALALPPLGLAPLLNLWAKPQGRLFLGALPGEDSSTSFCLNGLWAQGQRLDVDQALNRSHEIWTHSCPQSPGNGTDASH
Method: Human SHBG was treated for 30 min at room temperature with a dextran-coated charcoal (DCC) suspension in phosphate buffered saline (PBS) to remove any steroid ligand. After centrifugation (2,000×g for 10 min) to sediment the DCC, the supernatant containing the human SHBG was diluted in PBS to a concentration of 1 nM based on its steroid binding capacity.
The average amounts of [^3H]labeled ligands bound to SHBG at each concentration of competitor (B) were expressed as a percentage of the average amounts of [^3H]labeled ligands bound to SHBG in the absence of competitor (B0), and were plotted against the concentration of competitor in each assay tube.

[4] = tested on: male DBA/1 mice with collagen induced arthritis (CIA); assay: Collagen induced arthritis (CIA) in male DBA/1 mice, oral treatment; format: in vivo, mouse; conditions: 1 mg/kg
Method: The ability of estetrol to alleviate the severity of immune mediated disorders and its possible side-effects were evaluated and compared with dexamethasone in mice developing collagen induced arthritis (CIA), which is another experimental system of autoimmune and chronic inflammatory disease, representing human arthritic diseases, particularly rheumatoid arthritis (RA).
Arthritis was induced in male DBA/1 mice using a two-step immunization protocol (Joosten et al., “Dual role of IL-12 in early and late stages of murine collagen type II arthritis”. J Immunol 1997; 159:4094-4102; Joosten et al., “IL-1β blockade prevents cartilage and bone destruction in murine type II collagen-induced arthritis, whereas TNFα blockade only ameliorates joint inflammation”. J Immunol 1999; 163:5049-55). This strain is highly susceptible to CIA induced with bovine type II collagen. On day 0, mice were immunized with bovine type II collagen (100 μg) emulsified in Freund's complete adjuvant (four subcutaneous injections in the back). On day 21, mice were boosted with an i.p. injection of 100 μg collagen type II diluted in PBS.
The effect of oral treatment with estetrol on collagen-induced arthritis was studied in a 6-week study design. From day 22 until the end of the study (day 42), the animals were treated once daily with vehicle (hydroxypropyl-beta-cyclodextrin in a 20% wt/vol solution in water) serving as negative control or four different dosages of estetrol (3 mg/kg, 1 mg/kg, 0.3 mg/kg and 0.1 mg/kg). Dexamethasone (1 mg/kg), was chosen as a positive control because it is a well studied corticosteroid that reduces swelling and inflammation and is used in a variety of disorders such as skin diseases (psoriasis, hives), allergic conditions, breathing problems, cancer, blood disorders (anemia), digestive problems, eye disorders and for the treatment of arthritis. Although effective as an anti-inflammatory agent, dexamethasone is also known to induce a number of side effects, which amongst others include in humans the induction of osteoporosis, reduced adrenal function, dizziness, nausea, indigestion, increased appetite, weight gain due to enhanced water retention, weakness and/or sleep disturbances. In addition, systemic dexamethasone treatment in rodents results in strong catabolic effects that can be easily observed as weight loss (Orzechowski et al. 2002, “Rats with a glucocorticoid-induced catabolic state show symptoms of oxidative stress and spleen atrophy: the effects of age and recovery”. J Vet Med A Physiol Pathol Clin Med; 49:256-63).
All groups used in the study consisted of 13 mice. During the study animals were weighed and monitored for clinical signs of arthritis. Scoring of disease severity (clinical arthritis score) was performed according to scoring system described by Joosten et al. 1997 (J. Immunol., 159:4094-4102) and Joosten et al. 1999 (J. Immunol., 163:5049-55).
Basic statistical analyses were performed as follows: The significance of differences between all treatment groups in the main clinical outcome parameters was tested using analysis of variance (ANOVA). Each significant ANOVA was followed by post hoc Tukey tests to determine the significance of the difference between each treatment group and the control group. Furthermore, linear regression analysis was used to study the dose-dependency of the effects of treatment with estetrol. All statistical analysis were performed using statistical software program SPSS 10.0 for Windows (SPSS Inc., Chicago, Ill., USA).

[5] = elimination from the blood; cited from earlier work
[6] = tested on: castrated mice with experimental autoimmune encephalomyelitis (EAE); conditions: amount inducing serum levels of late stage pregnancy, Jansson et al. 1998; cited from earlier work

C[C@]12CC[C@@H]3c4ccc(O)cc4C[C@@H](CCCCCCCCC[S+]([O-])CCCC(F)(F)C(F)(F)F)[C@H]3[C@@H]1CC[C@@H]2O (stereo partly shown) [ICI-182,780]
effect on AP-1 site [1]: stimulate | effect on AP-1 site [2]: inhibit

C[C@]12CCC(=O)C[C@@H]1CC[C@@H]1[C@@H]2CC[C@]2(C)[C@@H](O)CC[C@@H]12 [5α-dihydrotestosterone, reference compound]
relative binding affinity for human SHBG [3]: in this order, show an increased relative binding affinity for human SHBG

C[C@@H]1C[C@H]2[C@@H]3CCC4=CC(=O)C=C[C@]4(C)[C@@]3(F)[C@@H](O)C[C@]2(C)[C@@]1(O)C(=O)CO [dexamethasone, reference compound]
average cumulative arthritis score ([4]; day 21 to 42, vehicle 31.4±1.73): 0 | body weight, % of initial weight (day 21) ([4]; day 28): 91.5% | body weight, % of initial weight (day 21) ([4]; day 35): 91.4% | body weight, % of initial weight (day 21) ([4]; day 42): 94.0% | macroscopic arthritis score ([4]; until day 42, vehicle 5.90±0.38 on day 42): 0 | disease incidence (arthritis) ([4]; up to day 42): 0%

C[C@]12CC[C@@H]3c4ccc(O)cc4CC[C@H]3[C@@H]1CC[C@@H]2O [E2, 17β-estradiol]
half-life [5]: around 1 hour | effect on AP-1 site [1]: inhibits | onset of experimental autoimmune encephalomyelitis (EAE) [6]: delays the onset | effect on AP-1 site [2]: activates

C[C@]12CC[C@H]3[C@@H](CCC4=CC(=O)CC[C@@]43C)[C@@H]1CC[C@@H]2O [testosterone, reference compound]
relative binding affinity for human SHBG [3]: in this order, show an increased relative binding affinity for human SHBG

C[C@]12CC[C@@H]3c4ccc(O)cc4CC[C@H]3[C@@H]1C[C@@H](O)[C@@H]2O [estriol]
onset of experimental autoimmune encephalomyelitis (EAE) [6]: delays the onset

CC/C(=C(\c1ccccc1)c1ccc(OCCN(C)C)cc1)c1ccccc1 [tamoxifen]
effect on AP-1 site [1]: stimulate | effect on AP-1 site [2]: inhibit

O=C(c1ccc(OCCN2CCCCC2)cc1)c1c(-c2ccc(O)cc2)sc2cc(O)ccc12 [raloxifene]
effect on AP-1 site [1]: stimulate | effect on AP-1 site [2]: inhibit
